Results as given in patent US20030103993A1, “HLA-DR2 binding peptides” (Corixa Corporation, priority 2000, published 2003).

Experiments:
[1] = target: T1, HLA-DR2 (Homo sapiens, UniProt P01903+Q30154); test: Peptide/DR2 competitive binding assay (biotinylated MBP 83-102Y83 vs test peptide, ELISA)
T1 construct: DR2 molecules were purified from the human EBV-B cell line; endogenous in cells; host or cells: human EBV-B cell line
Experimental: DR2 molecules were purified from the human EBV-B cell line. […] Mab L243 (IgG2a) affinity chromatography. A 10 μM solution of affinity purified DR2 was biotinylated with 200 μM Biotin-XX-NHS in 0.25 NaHCO3/0.2% NP-40 for 1 hr. at room temperature.
The ability of peptides to bind HLA-DR2 was estimated by competitive peptide binding assay. Purified HLA-DR2 (2 μg/ml) was incubated with 50-fold excess Bt-MBP 83-102Y83 peptide in the presence or absence of test peptides. The ratio of Et-MEP 831-2Y83 peptide to the test peptide was 1:1. After incubation at 37° C. for 48 hrs, the complex was added to the wells coated with anti-DR antibody and incubated for 2 hours at 37° C. The wells were then washed and alkaline phosphatase-linked streptavidin was added and the reaction incubated for 1 hour at 37° C. The excess streptavidin was washed and the ELISA color was developed by using p-nitrophenol phosphate in 0.1M diethanolamine as substrate. The test peptide was considered to be the stronger binding peptide if the O.D was less than the O.D of Bt 83-102Y83 peptide in the absence of the test peptide.

[2] = tested on: SS8T cells; test: T cell metabolic acidification rate (Cytosensor microphysiometer); format: cell-based, human
Text: Freshly cultured SS8T cells were immobilized into microphysiometer cell capsules as described earlier (Arimilli et al., J. Immunol. Methods 212:49-59 (1998)) using low-melt agarose (Molecular Devices Corp., Sunnyvale, Calif.). Briefly, cells were rested from IL-2 pulsing for 2 days. Cells were counted and suspended in a serum-free loading medium (low-buffering RPMI 1640 containing 10% fatty acid free, endotoxin-free BSA). Cells were collected by centrifugation and resuspended at a concentration of 3×10^5 T cells per 7.5 μl of loading medium. Low-melt agarose (Molecular Devices Corp.), melted and stored at 37° C., was added to the suspended cells to a concentration of 2.5 μl per 7.5 μl. Ten μl of the agarose/cell mixture was immediately spotted into the center of the cell capsule cups (Molecular Devices Corp.) held in a 12 well culture plate. After 5 minutes, 2 ml of loading medium was placed in the capsule cup over the solidified agarose and a membrane insert was placed over the cells. The assembled cell capsule was loaded in the Cytosensor chamber at 37° C. and perfused at 50 μl per min with low-buffering RPMI 1640 medium containing […] but no added HEPES or bicarbonate. […]

[3] = tested on: SS8T cloned human T cells; test: T cell receptor occupancy assay: γ-IFN production by SS8T T cell clone (ELISA); format: cell-based; conditions: SS8T cells restricted to HLA-DR2 and MBP 84-102; 48 h incubation; text cites FIG. 2
Experimental: The Herpes saimiri virus (HSV) transformed SS8T human T cell clone was a generous gift from Dr. H. Wekerle. The clone is restricted to DR2 (DRB5*0101) and MBP (84-102) peptide. It was cultured in RPMI 1640 medium supplemented with 2 mM L-glutamine, 100 units/ml penicillin, 100 μg/ml streptomycin, 10% fetal bovine serum and 50 units/ml human recombinant IL-2 (rIL-2) at 37° C. (culture medium). Every alternate day, cells were transferred to fresh culture medium. Various peptides at different concentrations were incubated with the cells in a microtiter tissue culture plate at a density of 20,000 cells/200 μl/well in the absence of rIL-2. After 48 h of incubation at 37° C., the culture fluids were collected from each well to test for γ-IFN and TNF-β cytokines. The detection of γ-IFN was by Ab ELISA as described recently (Arimilli et a.l, J. Immunol. Methods 212:49-59 (1998)). For the detection of TNF-β, Nunc Maxisorb 96-well plates were coated with anti-human TNF-β mAb at a concentration of 0.5 μg/well and incubated at 4° C. overnight. The wells were blocked with 0.1% bovine serum albumin, and samples were incubated at RT for 2 h. A standard curve was generated by using recombinant human TNF-β with a dilution range of 500 to 0.01 ng/ml. […] The reaction was stopped by 2N sulfuric acid at 5 mm, and the absorbance was measured at 450 nm.

GHIKSSISFMGM [peptide #1]
inhibition of the binding of biotinylated MBP 83-102 to DR2 ([1]; purified DR2, 50-fold molar excess biotinylated MBP 83-102Y83, increasing concentrations of test peptide, FIG. 1): to the same extent as the unbiotinylated MBP 83-102 peptide
affinity of binding to DR2 relative to MBP peptide ([1]; synthesized peptide, compared with MBP 84-102 peptide): comparatively in the same range as that of the MBP 83-102 peptide
activation of the MBP 83-102 specific T cells in the presence of increasing concentrations of test peptide ([2]; competition with MBP peptide, increasing concentrations): decreasing activation of the hybridomas in a competitive manner

Ac-GFGYGGRASDYKSAHKGFKG (Ac-GFGYGGRASDYKSAHKGFKG-NH2) [MBP 124-143 peptide, myelin basic protein peptide 124-143, control]
γ-IFN production by SS8T cells exposed to peptide [3]: did not show any increase in γ-IFN production

Ac-YDENPVVHEKMVTPRTPP (Ac-YDENPVVHEKMVTPRTPP-NH2) [MBP 83-102 peptide, myelin basic protein peptide 83-102 with Y at position 83]
stimulation of SS8T cells (extracellular acidification rate) ([2]; SS8T cells immobilized in agarose, exposed to peptide, FIG. 3): increased level of extracellular acidification rate within 10 minutes
γ-IFN production by SS8T cells exposed to peptide [3]: specific increase in γ-IFN production
